In this assay the test system is L929. The experiment in a line: Cytotoxicity against mouse L929 cells. It is filed as cell-based.

SMILES strings stand for the structures. ≈ marks a conversion by molar mass, not a printed value.

The results in this text go back to ChEMBL document CHEMBL1155715, “New natural epothilones from Sorangium cellulosum, strains So ce90/B2 and So ce90/D13: isolation, structure elucidation, and SAR studies” (J Nat Prod, 2001).

Broadly, the IC50 is the point on the concentration scale where inhibition reaches its midpoint. As to `C/C(=C\c1csc(C)n1)[C@@H](O)C/C=C\CCC[C@H](C)[C@H](O)[C@@H](C)C(=O)C(C)C`, the IC50 (read-out: IC50) turned out to be 0.8 µg/mL (≈ 1.96 µM). Take `C/C(=C\c1csc(C)n1)[C@@H]1C/C=C/CCC[C@H](C)[C@H](O)[C@@H](C)C(=O)[C@@H](C)[C@@H](O)CC(=O)O1`: the half-maximal inhibitory concentration (IC50) came to 0.4 µg/mL (≈ 0.863 µM). The same measure, in the same setting: for `C/C(=C\c1csc(C)n1)[C@@H]1C/C=C/CCC[C@H](C)[C@H](O)[C@@H](C)C(=O)[C@H](C)[C@@H](O)CC(=O)O1` the value was 0.08 µg/mL (≈ 0.173 µM). `CCC(=O)[C@@H](C)CCC/C=C\C[C@H](O)/C(C)=C/c1csc(C)n1`: under “read-out: IC50”, the 50% inhibitory concentration (IC50) was above 4 µg/mL.

With `CCC(=O)[C@@H](C)CCC/C(C)=C\C[C@H](O)/C(C)=C/c1csc(C)n1`, the IC50 (read-out: IC50) is above 4 µg/mL. The same measure, in the same setting: the same measure for `C/C(=C\c1csc(C)n1)[C@@H]1C[C@@H]2O[C@@H]2CCC[C@H](C)[C@H](O)[C@@H](C)C(=O)[C@H](C)[C@@H](O)CC(=O)O1` [EPOTHILONE A1]: 0.02 µg/mL (≈ 0.0417 µM). Still for that read-out and setting: the same measure for `C/C(=C\c1csc(C)n1)[C@@H]1C[C@@H]2O[C@@H]2CCC[C@H](C)[C@H](O)[C@@H](C)C(=O)[C@@H](C)[C@@H](O)CC(=O)O1` [EPOTHILONE A2]: 0.007 µg/mL (≈ 0.0146 µM); for `Cc1nc(/C=C/[C@@H]2C[C@@H]3O[C@@H]3CCC[C@H](C)[C@H](O)[C@@H](C)C(=O)C(C)(C)[C@@H](O)CC(=O)O2)cs1` [EPOTHILONE A8]: 0.02 µg/mL (≈ 0.0417 µM).

On to `Cc1nc(/C=C(\CO)[C@@H]2C[C@@H]3O[C@@H]3CCC[C@H](C)[C@H](O)[C@@H](C)C(=O)C(C)(C)[C@@H](O)CC(=O)O2)cs1` [EPOTHILONE A9], for which the IC50 (read-out: IC50) stood at 0.1 µg/mL (≈ 0.196 µM).

For the molecule `C/C(=C\c1csc(C)n1)[C@@H]1C[C@@H]2O[C@@H]2CCC[C@H](C)[C@H](O)[C@@H](C)C(=O)C(C)(C)[C@@H](O)CC(=O)O1` [EPOTHILONE A], the IC50 (read-out: IC50) amounted to 0.004 µg/mL (≈ 0.0081 µM). `C/C(=C\c1csc(C)n1)[C@@H]1C/C=C\CCC[C@H](C)[C@H](O)[C@@H](C)C(=O)[C@H](C)[C@@H](O)CC(=O)O1` [EPOTHILONE C1]: the IC50 (read-out: IC50) was 0.9 µg/mL (≈ 1.94 µM). On the same count and under the same terms, the same measure for `C/C(=C\c1csc(C)n1)[C@@H]1C/C=C\CCC[C@H](C)[C@H](O)[C@@H](C)C(=O)[C@@H](C)[C@@H](O)CC(=O)O1` [EPOTHILONE C2]: 0.8 µg/mL (≈ 1.73 µM). On the same count and under the same terms, for `C/C(=C\c1csc(C)n1)[C@@H]1C/C=C\CCC[C@H](C)[C@H](O)CC(=O)C(C)(C)[C@@H](O)CC(=O)O1` [EPOTHILONE C3] the value was 1.5 µg/mL (≈ 3.24 µM). Still for that read-out and setting: the same measure for `C/C(=C\c1csc(C)n1)[C@@H]1C/C=C\CCCC[C@H](O)[C@@H](C)C(=O)C(C)(C)[C@@H](O)CC(=O)O1` [EPOTHILONE C4]: 0.8 µg/mL (≈ 1.73 µM); for `C/C(=C\c1csc(C)n1)[C@@H]1C/C=C\CC/C=C(\C)[C@H](O)[C@@H](C)C(=O)C(C)(C)[C@@H](O)CC(=O)O1` [EPOTHILONE C5]: 1.5 µg/mL (≈ 3.15 µM); for `C/C(=C\c1csc(C)n1)[C@@H]1C/C=C\C=C\C[C@H](C)[C@H](O)[C@@H](C)C(=O)C(C)(C)[C@@H](O)CC(=O)O1` [EPOTHILONE C6]: 0.12 µg/mL (≈ 0.252 µM). As for `C/C(=C\c1csc(C)n1)[C@H]1OC(=O)C[C@H](O)C(C)(C)C(=O)[C@H](C)[C@@H](O)[C@@H](C)CCC/C=C\[C@@H]1O` [EPOTHILONE C7], the IC50 (read-out: IC50) amounted to 0.025 µg/mL (≈ 0.0506 µM).

For `Cc1nc(/C=C/[C@@H]2C/C=C\CCC[C@H](C)[C@H](O)[C@@H](C)C(=O)C(C)(C)[C@@H](O)CC(=O)O2)cs1` [EPOTHILONE C8], the IC50 (read-out: IC50) is 0.25 µg/mL (≈ 0.539 µM). `Cc1nc(/C=C(\CO)[C@@H]2C/C=C\CCC[C@H](C)[C@H](O)[C@@H](C)C(=O)C(C)(C)[C@@H](O)CC(=O)O2)cs1` [EPOTHILONE C9]: the IC50 (read-out: IC50) was found to be 0.2 µg/mL (≈ 0.405 µM). `C/C(=C\c1csc(C)n1)[C@@H]1C/C=C\CCC[C@H](C)[C@H](O)[C@@H](C)C(=O)C(C)(C)[C@@H](O)CC(=O)O1` [EPOTHILONE C]: where the note is “read-out: IC50”, the IC50 stood at 0.06 µg/mL (≈ 0.126 µM). Same read-out and setting: for `C/C1=C/C[C@@H](/C(C)=C/c2csc(C)n2)OC(=O)C[C@H](O)[C@@H](C)C(=O)[C@H](C)[C@@H](O)[C@@H](C)CCC1` [EPOTHILONE D1] the value was 0.035 µg/mL (≈ 0.0733 µM).

As to `C/C1=C/C[C@@H](/C(C)=C/c2csc(C)n2)OC(=O)C[C@H](O)[C@H](C)C(=O)[C@H](C)[C@@H](O)[C@@H](C)CCC1` [EPOTHILONE D2], under “read-out: IC50”, the IC50 is 0.007 µg/mL (≈ 0.0147 µM). The same measure, in the same setting: for `C/C1=C/C[C@@H](/C(C)=C/c2csc(C)n2)OC(=O)C[C@H](O)C(C)(C)C(=O)[C@H](C)[C@@H](O)/C(C)=C/CC1` [EPOTHILONE D5] the value was 0.2 µg/mL (≈ 0.408 µM); for `C/C1=C/C[C@@H](/C(C)=C/c2csc(C)n2)OC(=O)C[C@H](O)C(C)(C)C(=O)[C@H](C)[C@@H](O)[C@@H](C)CCC1` [EPOTHILONE D], 0.02 µg/mL (≈ 0.0407 µM); for `C/C(=C\c1csc(CO)n1)[C@@H]1C[C@@H]2O[C@@H]2CCC[C@H](C)[C@H](O)[C@@H](C)C(=O)C(C)(C)[C@@H](O)CC(=O)O1` [EPOTHILONE E], 0.01 µg/mL (≈ 0.0196 µM).

`C/C(=C\c1csc(CO)n1)[C@@H]1C[C@@H]2O[C@]2(C)CCC[C@H](C)[C@H](O)[C@@H](C)C(=O)C(C)(C)[C@@H](O)CC(=O)O1` [EPOTHILONE F]: under “read-out: IC50”, the IC50 was 0.0015 µg/mL (≈ 0.00286 µM). Consider `C/C(=C\c1coc(C)n1)[C@@H]1C[C@@H]2O[C@@H]2CCC[C@H](C)[C@H](O)[C@@H](C)C(=O)C(C)(C)[C@@H](O)CC(=O)O1` [EPOTHILONE G1], for which, where the note is “read-out: IC50”, the IC50 was determined as 0.006 µg/mL (≈ 0.0126 µM).

As for `C/C(=C\c1coc(C)n1)[C@@H]1C[C@@H]2O[C@]2(C)CCC[C@H](C)[C@H](O)[C@@H](C)C(=O)C(C)(C)[C@@H](O)CC(=O)O1` [EPOTHILONE G2], the IC50 (read-out: IC50) was found to be 0.001 µg/mL (≈ 0.00203 µM). The same measure, in the same setting: for `C/C(=C\c1coc(C)n1)[C@@H]1C/C=C\CCC[C@H](C)[C@H](O)[C@@H](C)C(=O)C(C)(C)[C@@H](O)CC(=O)O1` [EPOTHILONE H1] the value was 0.12 µg/mL (≈ 0.26 µM). The same measure, in the same setting: for `C/C1=C/C[C@@H](/C(C)=C/c2coc(C)n2)OC(=O)C[C@H](O)C(C)(C)C(=O)[C@H](C)[C@@H](O)[C@@H](C)CCC1` [EPOTHILONE H2] the value was 0.011 µg/mL (≈ 0.0231 µM); for `C/C(=C\c1csc(C)n1)[C@@H]1C/C=C\CCCCC[C@H](C)[C@H](O)[C@@H](C)C(=O)C(C)(C)[C@@H](O)CC(=O)O1` [EPOTHILONE I1], 0.8 µg/mL (≈ 1.58 µM). As for `C/C(=C\c1csc(C)n1)[C@@H]1C/C=C\CCCC(C)C[C@H](C)[C@H](O)[C@@H](C)C(=O)C(C)(C)[C@@H](O)CC(=O)O1` (some centres not stated) [EPOTHILONE I2], the IC50 (read-out: IC50) was found to be 0.4 µg/mL (≈ 0.77 µM). For the molecule `C/C1=C/C[C@@H](/C(C)=C/c2csc(C)n2)OC(=O)C[C@H](O)C(C)(C)C(=O)[C@H](C)[C@@H](O)[C@@H](C)CC(C)CCC1` (some centres not stated) [EPOTHILONE I3], the IC50 (read-out: IC50) is 0.6 µg/mL (≈ 1.12 µM). On to `C/C(=C\c1csc(C)n1)[C@@H]1C/C=C\CCCC(C)C[C@H](C)[C@H](O)[C@@H](C)C(=O)[C@@H](C)[C@@H](O)CC(=O)O1` (some centres not stated) [EPOTHILONE I4], for which the half-maximal inhibitory concentration (IC50) (read-out: IC50) stood at 0.3 µg/mL (≈ 0.593 µM).

For the molecule `C/C1=C/C[C@@H](/C(C)=C/c2csc(C)n2)OC(=O)C[C@H](O)[C@H](C)C(=O)[C@H](C)[C@@H](O)[C@@H](C)CC(C)CCC1` (some centres not stated) [EPOTHILONE I5], the IC50 (read-out: IC50) stood at 0.1 µg/mL (≈ 0.192 µM).

For `C/C1=C/C[C@@H](/C(C)=C/c2csc(C)n2)OC(=O)C[C@H](O)[C@@H](C)C(=O)[C@H](C)[C@@H](O)[C@@H](C)CC(C)CCC1` (some centres not stated) [EPOTHILONE I6], the IC50 (read-out: IC50) was 0.6 µg/mL (≈ 1.15 µM).

Consider `C/C(=C\c1csc(C)n1)[C@@H]1C[C@@H]2O[C@]2(C)CCC[C@H](C)[C@H](O)[C@@H](C)C(=O)C(C)(C)[C@@H](O)CC(=O)O1` [PATUPILONE], for which the IC50 (read-out: IC50) came to 0.001 µg/mL (≈ 0.00197 µM).
